Data taken from patent publication US12458021B2, “Microbiocidal derivatives” (SYNGENTA CROP PROTECTION AG, priority 2019, dated 2025).

What was measured:
[1] = tested on: Alternaria solani; experiment: Alternaria solani / tomato / leaf disc (early blight); format: in vivo; conditions: foliar, tomato leaf disks cv. Baby, inoculated 2 days after application, assessed 5-7 days after application, read-out: control of Alternaria solani (percent disease control compared to untreated)
Method: Example B1: Alternaria solani/Tomato/Leaf Disc (Early Blight) Tomato leaf disks cv. Baby are placed on agar in multiwell plates (24-well format) and sprayed with the formulated test compound diluted in water. The leaf disks are inoculated with a spore suspension of the fungus 2 days after application. The inoculated leaf disks are incubated at 23° C./21° C. […] […]-185.

[2] = tested on: Glomerella lagenarium (Colletotrichum lagenarium); experiment: Glomerella lagenarium (Colletotrichum lagenarium) / liquid culture (anthracnose); format: cell-based; conditions: Colletotrichum orbiculare, PDB potato dextrose broth, 24° C., 3-4 days after application, read-out: control of Glomerella lagenarium (inhibition of growth, photometric)
In short: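 Conidia from cryogenic storage suspended in potato dextrose broth and added to DMSO compound solution in plates. Incubated at 24° C; growth inhibition read photometrically 3-4 days after application.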

[3] = tested on: Blumeria graminis f. sp. tritici (Erysiphe graminis f. sp. tritici); experiment: Blumeria graminis f. sp. tritici / wheat / leaf disc preventative (powdery mildew on wheat); format: in vivo; conditions: foliar, wheat leaf segments cv. Kanzler, inoculated 1 day after application, assessed 6-8 days after application, read-out: control of Blumeria graminis f. sp. tritici (percent disease control compared to untreated)
Description: Example B4: Blumeria graminis f. sp. tritici (Erysiphe graminis f. sp. tritici)/Wheat/Leaf Disc Preventative (Powdery Mildew on Wheat) Wheat leaf segments cv. Kanzler are placed on agar in a multiwell plate (24-well format) and sprayed with the formulated test compound diluted in water. The leaf disks are inoculated by shaking powdery mildew infected plants above the test plates 1 day after application. […] […]-192.

[4] = tested on: Monographella nivalis (Microdochium nivale); experiment: Monographella nivalis (Microdochium nivale) / liquid culture (foot rot cereals); format: cell-based; conditions: PDB potato dextrose broth, 24° C., 4-5 days after application, read-out: control of Monographella nivalis (inhibition of growth, photometric)
In short: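 Cryostored M. nivalis conidia mixed into potato dextrose broth and added to 96-well plates holding test compound in DMSO. Incubated at 24° C; growth inhibition read photometrically 4-5 days after application.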

[5] = tested on: Puccinia recondita f. sp. tritici; experiment: Puccinia recondita f. sp. tritici / wheat / leaf disc preventative (brown rust); format: in vivo; conditions: foliar, wheat leaf segments cv. Kanzler, inoculated 1 day after application, assessed 7-9 days after application, read-out: control of Puccinia recondita f. sp. tritici, preventative (percent disease control compared to untreated)
Method: Example B11: Puccinia recondita f. sp. tritici/Wheat/Leaf Disc Preventative (Brown Rust) Wheat leaf segments cv. Kanzler are placed on agar in multiwell plates (24-well format) and sprayed with the formulated test compound diluted in water. The leaf disks are inoculated with a spore suspension of the fungus 1 day after application. The inoculated leaf segments are incubated at 19° C. and 75% rh under a light regime of 12 h light/12 h darkness in a climate cabinet and the activity of a compound is assessed as percent disease control compared to untreated when an appropriate level of disease damage appears in untreated check leaf segments (7-9 days after application). […] […]-190.

[6] = tested on: Magnaporthe grisea (Pyricularia oryzae); experiment: whole plant or invertebrate; format: in vivo; conditions: foliar, read-out: control of Magnaporthe grisea (percent disease control compared to untreated)
[7] = tested on: Pyrenophora teres; experiment: Pyrenophora teres / barley / leaf disc preventative (net blotch); format: in vivo; conditions: foliar, barley leaf segments cv. Hasso, inoculated 2 days after application, assessed 5-7 days after application, read-out: control of Pyrenophora teres (disease control compared to untreated)
Method: Example B13: Pyrenophora teres/Barley/Leaf Disc Preventative (Net Blotch) Barley leaf segments cv. Hasso are placed on agar in a multiwell plate (24-well format) and sprayed with the formulated test compound diluted in water. The leaf segments are inoculated with a spore suspension of the fungus 2 days after application. The inoculated leaf segments are incubated at 20° C. and 65% rh under a light regime of 12 h light/12 h darkness in a climate cabinet and the activity of a compound is assessed as disease control compared to untreated when an appropriate level of disease damage appears in untreated check leaf segments (5-7 days after application). […] […]-185.

[8] = tested on: Mycosphaerella graminicola (Septoria tritici); experiment: Mycosphaerella graminicola (Septoria tritici) / liquid culture (Septoria blotch); format: cell-based; conditions: Zymoseptoria tritici, PDB potato dextrose broth, 24° C., 4-5 days after application, read-out: control of Mycosphaerella graminicola (inhibition of growth, photometric)
In short: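 Conidia from cryogenic storage were mixed into potato dextrose broth and added to test compound in DMSO. Plates were incubated at 24° C, and growth inhibition was read photometrically 4-5 days after application.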

[9] = tested on: Mycosphaerella arachidis (Cercospora arachidicola); experiment: Mycosphaerella arachidis (Cercospora arachidicola) / liquid culture (early leaf spot); format: cell-based; conditions: PDB potato dextrose broth, 24° C., 4-5 days after application, read-out: control of Mycosphaerella arachidis (inhibition of growth, photometric)
Method: Example B8: Mycosphaerella arachidis (Cercospora arachidicola)/Liquid Culture (Early Leaf Spot) Conidia of the fungus from cryogenic storage are directly mixed into nutrient broth (PDB potato dextrose broth). After placing a (DMSO) solution of test compound into a microtiter plate (96-well format), the nutrient broth containing the fungal spores is added. The test plates are incubated at 24° C. and the inhibition of growth is determined photometrically 4-5 days after application. […] […]-180.

[10] = tested on: Phaeosphaeria nodorum (Septoria nodorum); experiment: Phaeosphaeria nodorum (Septoria nodorum) / wheat / leaf disc preventative (glume blotch); format: in vivo; conditions: Parastagonospora nodorum, foliar, wheat leaf segments cv. Kanzler, inoculated 2 days after application, assessed 5-7 days after application, read-out: control of Phaeosphaeria nodorum (percent disease control compared to untreated)
Method: Example B6: Phaeosphaeria nodorum (Septoria nodorum)/Wheat/Leaf Disc Preventative (Glume Blotch) Wheat leaf segments cv. Kanzler are placed on agar in a multiwell plate (24-well format) and sprayed with the formulated test compound diluted in water. The leaf disks are inoculated with a spore suspension of the fungus 2 days after application. The inoculated test leaf disks are incubated at 20° C. and 75% rh under a light regime of 12 h light/12 h darkness in a climate cabinet and the activity of a compound is assessed as percent disease control compared to untreated when an appropriate level of disease damage appears in untreated check leaf disks (5-7 days after application). […] […]-190.

COc1ccc(Nc2cc(F)nc(F)c2)nc1C(=O)NC1CCC12CCCC2 (stereo not shown) [Compound P-6, 6-[(2,6-difluoro-4-pyridyl)amino]-3-methoxy-N-spiro[3.4]octan-3-yl-pyridine-2-carboxamide]
≥ 80%: pest or weed control at 200 ppm [1] | inhibition at 20 ppm [2] | pest or weed control at 200 ppm [3] | inhibition at 20 ppm [4] | pest or weed control at 200 ppm [5] | pest or weed control at 200 ppm [6] | pest or weed control at 200 ppm [7] | inhibition at 20 ppm [8]

COc1ccc(Nc2cc(F)cc(F)c2)nc1C(=O)NCC(C)c1ccccc1 (stereo not shown) [Compound P-23, 6-(3,5-difluoroanilino)-3-methoxy-N-(2-phenylpropyl)pyridine-2-carboxamide]
≥ 80%: inhibition at 20 ppm [2] | inhibition at 20 ppm [4] | inhibition at 20 ppm [9] | pest or weed control at 200 ppm [5] | pest or weed control at 200 ppm [6] | inhibition at 20 ppm [8]

COc1ccc(Nc2cc(F)cc(F)c2)nc1C(=O)NCc1ccccc1 [Compound P-25, N-benzyl-6-(3,5-difluoroanilino)-3-methoxy-pyridine-2-carboxamide]
≥ 80%: inhibition at 20 ppm [2] | pest or weed control at 200 ppm [3] | pest or weed control at 200 ppm [10] | inhibition at 20 ppm [4] | pest or weed control at 200 ppm [5] | pest or weed control at 200 ppm [6] | inhibition at 20 ppm [8]

COc1ccc(Nc2cc(F)nc(F)c2)nc1C(=O)NCCC(C)C [Compound P-29, 6-[(2,6-difluoro-4-pyridyl)amino]-N-isopentyl-3-methoxy-pyridine-2-carboxamide]
≥ 80%: inhibition at 20 ppm [2] | pest or weed control at 200 ppm [3] | inhibition at 20 ppm [4] | pest or weed control at 200 ppm [5] | pest or weed control at 200 ppm [6] | pest or weed control at 200 ppm [7] | inhibition at 20 ppm [8]

COc1ccc(Nc2cnsc2)nc1C(=O)NC(C)CCCC(C)C (stereo not shown) [Compound P-36, N-(1,5-dimethylhexyl)-6-(isothiazol-4-ylamino)-3-methoxy-pyridine-2-carboxamide]
≥ 80%: inhibition at 20 ppm [2] | inhibition at 20 ppm [4] | inhibition at 20 ppm [9] | inhibition at 20 ppm [8]

CC1(C)CCC1NC(=O)c1nc(Nc2cc(F)cc(F)c2)ccc1OC(F)F (stereo not shown) [Compound P-46, 6-(3,5-difluoroanilino)-3-(difluoromethoxy)-N-(2,2-dimethylcyclobutyl)pyridine-2-carboxamide]
≥ 80%: inhibition at 20 ppm [2] | pest or weed control at 200 ppm [10] | inhibition at 20 ppm [4] | inhibition at 20 ppm [9] | pest or weed control at 200 ppm [6] | inhibition at 20 ppm [8]

COc1ccc(Nc2cc(F)cc(F)c2)nc1C(=O)NC1COC2(CC2)C1 (stereo not shown) [Compound P-70, 6-(3,5-difluoroanilino)-3-methoxy-N-(4-oxaspiro[2.4]heptan-6-yl)pyridine-2-carboxamide]
≥ 80%: pest or weed control at 200 ppm [1] | inhibition at 20 ppm [2] | pest or weed control at 200 ppm [3] | inhibition at 20 ppm [4] | pest or weed control at 200 ppm [5] | pest or weed control at 200 ppm [6] | inhibition at 20 ppm [8]

COc1ccc(Nc2cc(F)cc(F)c2)nc1C(=O)NC1C2CCOC2C1(C)C (stereo not shown) [Compound P-76, 6-(3,5-difluoroanilino)-N-(7,7-dimethyl-2-oxabicyclo[3.2.0]heptan-6-yl)-3-methoxy-pyridine-2-carboxamide]
≥ 80%: pest or weed control at 200 ppm [1] | inhibition at 20 ppm [2] | pest or weed control at 200 ppm [3] | inhibition at 20 ppm [4] | pest or weed control at 200 ppm [5] | pest or weed control at 200 ppm [6] | pest or weed control at 200 ppm [7] | inhibition at 20 ppm [8]

COc1ccc(Nc2cnsc2)nc1C(=O)NC1CCc2cc(C(F)(F)F)ccc21 (stereo not shown) [Compound P-79, 6-(isothiazol-4-ylamino)-3-methoxy-N-[5-(trifluoromethyl)indan-1-yl]pyridine-2-carboxamide]
≥ 80%: inhibition at 20 ppm [2] | inhibition at 20 ppm [4] | inhibition at 20 ppm [9] | pest or weed control at 200 ppm [5] | inhibition at 20 ppm [8]

COc1ccc(Nc2cc(F)nc(F)c2)nc1C(=O)NC(C)CCCC(C)C (stereo not shown) [Compound P-102, 6-[(2,6-difluoro-4-pyridyl)amino]-N-(1,5-dimethylhexyl)-3-methoxy-pyridine-2-carboxamide]
≥ 80%: inhibition at 20 ppm [2] | inhibition at 20 ppm [4] | inhibition at 20 ppm [9] | pest or weed control at 200 ppm [5] | pest or weed control at 200 ppm [6] | pest or weed control at 200 ppm [7] | inhibition at 20 ppm [8]

COc1ccc(Nc2cc(F)nc(F)c2)nc1C(=O)NC1(C)CCCCC1 [Compound P-110, 6-[(2,6-difluoro-4-pyridyl)amino]-3-methoxy-N-(1-methylcyclohexyl)pyridine-2-carboxamide]
≥ 80%: pest or weed control at 200 ppm [1] | inhibition at 20 ppm [2] | pest or weed control at 200 ppm [3] | inhibition at 20 ppm [4] | pest or weed control at 200 ppm [5] | pest or weed control at 200 ppm [6] | inhibition at 20 ppm [8]

COc1ccc(Nc2cccc(C#N)c2)nc1C(=O)NC(C)(C)C [Compound P-146, N-tert-butyl-6-(3-cyanoanilino)-3-methoxy-pyridine-2-carboxamide]
≥ 80%: pest or weed control at 200 ppm [1] | inhibition at 20 ppm [2] | pest or weed control at 200 ppm [10] | inhibition at 20 ppm [4] | pest or weed control at 200 ppm [5] | pest or weed control at 200 ppm [6] | inhibition at 20 ppm [8]
